# Results: the supplement of paper PMC10307832
# Tests used:
# Assay in all cases: relative viability (nuclei count vs DMSO), 5 days (fraction); higher = more cells survive
# LCLC-103H = tested on: LCLC-103H
# Outline: (§1)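 Five library-drug doses in √10 steps were combined with a fixed anchor-drug dose, or a single drug was given alone, by pin tool to lung cancer cell lines in 1536-well plates the day after seeding. Nuclei were stained and counted after 5 days. Relative viability is the nuclei count in treated wells over that in vehicle wells, taken as the median of duplicate plates.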
# ABC-1 = tested on: ABC-1
# Outline: as §1
# COR-L 105 = tested on: COR-L 105
# Outline: as §1
# NCI-H1650 = tested on: NCI-H1650
# Outline: as §1
# NCI-H1651 = tested on: NCI-H1651
# Outline: as §1
# NCI-H727 = tested on: NCI-H727
# Outline: as §1
# NCI-H647 = tested on: NCI-H647
# Outline: as §1
# NCI-H2087 = tested on: NCI-H2087
# Outline: as §1
# NCI-H358 = tested on: NCI-H358
# Outline: as §1
# HCC-827 = tested on: HCC-827
# Outline: as §1
# NCI-H1975 = tested on: NCI-H1975
# Outline: as §1
# H3255 = tested on: H3255
# Outline: as §1
# 201T = tested on: 201T
# Outline: as §1
# UMC-11 = tested on: UMC-11
# Outline: as §1
# NCI-H1437 = tested on: NCI-H1437
# Outline: as §1
# NCI-H838 = tested on: NCI-H838
# Outline: as §1
# EKVX = tested on: EKVX
# Outline: as §1
# COR-L23 = tested on: COR-L23
# Outline: as §1
# NCI-H661 = tested on: NCI-H661
# Outline: as §1
# EPLC-272H = tested on: EPLC-272H
# Outline: as §1
# HCC-15 = tested on: HCC-15
# Outline: as §1
# NCI-H520 = tested on: NCI-H520
# Outline: as §1
structure (smiles),measurement,setting,value
CCCCCCCCCCCC1=C(O)C(=O)C=C(O)C1=O [Embelin] + COc1cc2c(Oc3ccc(NC(=O)C4(C(=O)Nc5ccc(F)cc5)CC4)cc3F)ccnc2cc1OCCCN1CCOCC1 [Foretinib] (partner 0.25 µM),relative viability,LCLC-103H; first compound 0.08 µM,0.736
same,relative viability,LCLC-103H; first compound 0.8 µM,0.842
same,relative viability,LCLC-103H; first compound 2.53 µM,0.912
same,relative viability,LCLC-103H; first compound 8 µM,0.755
same,relative viability,ABC-1; first compound 0.08 µM,1.17
same,relative viability,ABC-1; first compound 0.8 µM,1.12
same,relative viability,ABC-1; first compound 2.53 µM,1.05
same,relative viability,ABC-1; first compound 8 µM,1.08
same,relative viability,COR-L 105; first compound 0.08 µM,1.04
same,relative viability,COR-L 105; first compound 0.8 µM,1.05
same,relative viability,COR-L 105; first compound 2.53 µM,1.18
same,relative viability,COR-L 105; first compound 8 µM,0.807
same,relative viability,NCI-H1650; first compound 0.08 µM,1.09
same,relative viability,NCI-H1650; first compound 0.8 µM,1.05
same,relative viability,NCI-H1650; first compound 2.53 µM,1.11
same,relative viability,NCI-H1650; first compound 8 µM,0.968
same,relative viability,NCI-H1651; first compound 0.08 µM,0.848
same,relative viability,NCI-H1651; first compound 0.8 µM,0.865
same,relative viability,NCI-H1651; first compound 2.53 µM,0.924
same,relative viability,NCI-H1651; first compound 8 µM,0.769
same,relative viability,NCI-H727; first compound 0.08 µM,0.793
same,relative viability,NCI-H727; first compound 0.8 µM,1.13
same,relative viability,NCI-H727; first compound 2.53 µM,1.11
same,relative viability,NCI-H727; first compound 8 µM,0.761
same,relative viability,NCI-H647; first compound 0.08 µM,1.37
same,relative viability,NCI-H647; first compound 0.8 µM,1.38
same,relative viability,NCI-H647; first compound 2.53 µM,1.28
same,relative viability,NCI-H647; first compound 8 µM,1.08
same,relative viability,NCI-H2087; first compound 0.08 µM,1.07
same,relative viability,NCI-H2087; first compound 0.8 µM,1.27
same,relative viability,NCI-H2087; first compound 2.53 µM,1.03
same,relative viability,NCI-H2087; first compound 8 µM,1.19
same,relative viability,NCI-H358; first compound 0.08 µM,0.753
same,relative viability,NCI-H358; first compound 0.8 µM,0.81
same,relative viability,NCI-H358; first compound 2.53 µM,0.976
same,relative viability,NCI-H358; first compound 8 µM,0.869
same,relative viability,HCC-827; first compound 0.08 µM,0.993
same,relative viability,HCC-827; first compound 0.8 µM,1.11
same,relative viability,HCC-827; first compound 2.53 µM,1.03
same,relative viability,HCC-827; first compound 8 µM,1.16
same,relative viability,NCI-H1975; first compound 0.08 µM,1.06
same,relative viability,NCI-H1975; first compound 0.8 µM,0.97
same,relative viability,NCI-H1975; first compound 2.53 µM,1.01
same,relative viability,NCI-H1975; first compound 8 µM,1.07
same,relative viability,H3255; first compound 0.08 µM,0.831
same,relative viability,H3255; first compound 0.8 µM,1.01
same,relative viability,H3255; first compound 2.53 µM,0.82
same,relative viability,H3255; first compound 8 µM,0.956
same,relative viability,201T; first compound 0.08 µM,1.14
same,relative viability,201T; first compound 0.8 µM,1.15
same,relative viability,201T; first compound 2.53 µM,1.18
same,relative viability,201T; first compound 8 µM,0.961
same,relative viability,UMC-11; first compound 0.08 µM,1.06
same,relative viability,UMC-11; first compound 0.8 µM,1.14
same,relative viability,UMC-11; first compound 2.53 µM,1.21
same,relative viability,UMC-11; first compound 8 µM,1.28
same,relative viability,NCI-H1437; first compound 0.08 µM,1.25
same,relative viability,NCI-H1437; first compound 0.8 µM,1.24
same,relative viability,NCI-H1437; first compound 2.53 µM,1.27
same,relative viability,NCI-H1437; first compound 8 µM,1.06
same,relative viability,NCI-H838; first compound 0.08 µM,1.08
same,relative viability,NCI-H838; first compound 0.8 µM,1.11
same,relative viability,NCI-H838; first compound 2.53 µM,1.06
same,relative viability,NCI-H838; first compound 8 µM,1.09
same,relative viability,EKVX; first compound 0.08 µM,0.789
same,relative viability,EKVX; first compound 0.8 µM,0.926
same,relative viability,EKVX; first compound 2.53 µM,0.625
same,relative viability,EKVX; first compound 8 µM,0.875
same,relative viability,COR-L23; first compound 0.08 µM,1
same,relative viability,COR-L23; first compound 0.8 µM,1.13
same,relative viability,COR-L23; first compound 2.53 µM,1.01
same,relative viability,COR-L23; first compound 8 µM,1.14
same,relative viability,NCI-H661; first compound 0.08 µM,1.03
same,relative viability,NCI-H661; first compound 0.8 µM,1.08
same,relative viability,NCI-H661; first compound 2.53 µM,0.994
same,relative viability,NCI-H661; first compound 8 µM,0.976
same,relative viability,EPLC-272H; first compound 0.08 µM,0.736
same,relative viability,EPLC-272H; first compound 0.8 µM,0.866
same,relative viability,EPLC-272H; first compound 2.53 µM,0.916
same,relative viability,EPLC-272H; first compound 8 µM,0.65
same,relative viability,HCC-15; first compound 0.08 µM,1.01
same,relative viability,HCC-15; first compound 0.8 µM,1.08
same,relative viability,HCC-15; first compound 2.53 µM,1.14
same,relative viability,HCC-15; first compound 8 µM,1.08
same,relative viability,NCI-H520; first compound 0.08 µM,0.891
same,relative viability,NCI-H520; first compound 0.8 µM,0.891
same,relative viability,NCI-H520; first compound 2.53 µM,0.878
same,relative viability,NCI-H520; first compound 8 µM,0.807
